Laboratory results reported in patent publication US7135487B2, “Sulphonamide derivatives” (Eli Lilly and Company, priority 1997, dated 2006).

Legend:
[1] = target: T1, human GluR4B (Homo sapiens, UniProt P48058); assay: Fluo3-AM fluorescence test of glutamate-induced response in HEK cells, relative to 100 μM cyclothiazide; type: cell-based; settings: human GluR4B receptor expressed in HEK 293 cells
T1 construct: expressed in transfected cells; host or cells: HEK (HEK 293)
Description: 96 well plates containing confluent monolayers of HEK cells stably expressing human GluR4B (obtained as described in European Patent Application Publication Number EP-A1–583917) were prepared. The tissue culture medium in the wells was then discarded, and the wells were each washed once with 200 μl of 5NaCa buffer (glucose, 10 mM, sodium chloride, 138 mM, magnesium chloride, 1 mM, potassium chloride, 5 mM, calcium chloride, 5 mM, N-[2-hydroxyethyl]-piperazine-N-[2-ethanesulfonic acid], 10 mM, to pH 7.1 to 7.3). The plates were then incubated for 60 minutes in the dark with 20 μM Fluo3-AM dye (obtained from Molecular Probes Inc, Eugene, Oreg.) in 5 NaCa buffer in each well. After the incubation, each well was washed once with 100 μl 5NaCa buffer, 200 μl of 5NaCa buffer was added and the plates were incubated for 30 minutes. […]
Each test was then performed as follows. […] A first reading was then taken using a FLUOROSKAN II fluorimeter (Obtained from Labsystems, Needham Heights, Mass., USA, a Division of Life Sciences International Plc). […] A second reading was then taken using the fluorimeter. The plate was then left in the fluorimeter for 5 minutes, and a third reading was taken. 15 μl of 400 μM glutamate solution was then added to each well (final glutamate concentration 100 μM), and a fourth reading was taken immediately. Approximately three minutes later, a fifth reading was taken. […]

T1 sequence (P48058 21-902): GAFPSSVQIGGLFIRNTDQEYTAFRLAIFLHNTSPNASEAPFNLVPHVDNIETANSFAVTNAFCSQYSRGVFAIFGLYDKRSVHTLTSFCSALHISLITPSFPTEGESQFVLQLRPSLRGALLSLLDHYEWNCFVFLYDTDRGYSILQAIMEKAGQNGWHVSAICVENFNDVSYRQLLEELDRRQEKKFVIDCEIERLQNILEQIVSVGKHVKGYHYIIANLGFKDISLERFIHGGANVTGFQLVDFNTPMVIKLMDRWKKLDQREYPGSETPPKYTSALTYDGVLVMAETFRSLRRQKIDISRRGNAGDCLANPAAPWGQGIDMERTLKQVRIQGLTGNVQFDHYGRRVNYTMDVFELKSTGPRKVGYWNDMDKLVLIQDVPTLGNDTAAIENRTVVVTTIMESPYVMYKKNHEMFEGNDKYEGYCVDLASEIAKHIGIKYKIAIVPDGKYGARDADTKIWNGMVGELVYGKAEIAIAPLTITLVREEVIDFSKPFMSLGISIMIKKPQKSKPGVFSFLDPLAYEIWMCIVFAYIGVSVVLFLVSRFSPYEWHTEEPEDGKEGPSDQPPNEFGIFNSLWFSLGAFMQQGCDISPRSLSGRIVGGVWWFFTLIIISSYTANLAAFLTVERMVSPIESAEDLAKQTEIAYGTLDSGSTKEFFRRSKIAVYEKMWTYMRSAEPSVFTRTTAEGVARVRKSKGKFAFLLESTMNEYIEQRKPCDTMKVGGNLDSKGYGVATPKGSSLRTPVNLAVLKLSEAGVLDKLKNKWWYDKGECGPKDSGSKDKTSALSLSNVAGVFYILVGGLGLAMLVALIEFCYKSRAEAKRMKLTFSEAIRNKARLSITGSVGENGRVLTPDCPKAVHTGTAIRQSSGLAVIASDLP

| Structure (SMILES) | melting point [°C] | potentiation of agonist-induced excitability of human GluR4B receptor [1] |
| --- | --- | --- |
| CC(C)(C)c1ccc(C2(CNS(=O)(=O)C(F)(F)F)CC2)cc1 | 82 to 84 | – |
| CC(C)S(=O)(=O)NCC1(c2ccc(C(C)(C)C)cc2)CC1 | 87 to 89.5 | – |
| NS(=O)(=O)c1cc2c(cc1Cl)NC(C1CC3C=CC1C3)NS2(=O)=O (stereo not drawn) [cyclothiazide] | – | potentiate |
